According to US11446298B2, “Pyrimidine derivatives” (Idorsia Pharmaceuticals Ltd, priority 2017, dated 2022):

Experiments:
Format in all cases: cell-based
PTGER4 (EP4) = target: T1, PTGER4 (EP4) (Homo sapiens, UniProt P35408); assay: hEP4 b-Arrestin Assay (PathHunter HEK 293 PTGER4 b-arrestin cells, PGE2 20 nM); conditions: antagonistic activity, beta-arrestin assay, HEK 293 PTGER4 cells, PGE2 20 nM (EC80); read-out: hEP4 b-arr IC50
T1 construct: host or cells: HEK 293 (PathHunter, stably transfected)
T1 sequence (P35408 whole entry): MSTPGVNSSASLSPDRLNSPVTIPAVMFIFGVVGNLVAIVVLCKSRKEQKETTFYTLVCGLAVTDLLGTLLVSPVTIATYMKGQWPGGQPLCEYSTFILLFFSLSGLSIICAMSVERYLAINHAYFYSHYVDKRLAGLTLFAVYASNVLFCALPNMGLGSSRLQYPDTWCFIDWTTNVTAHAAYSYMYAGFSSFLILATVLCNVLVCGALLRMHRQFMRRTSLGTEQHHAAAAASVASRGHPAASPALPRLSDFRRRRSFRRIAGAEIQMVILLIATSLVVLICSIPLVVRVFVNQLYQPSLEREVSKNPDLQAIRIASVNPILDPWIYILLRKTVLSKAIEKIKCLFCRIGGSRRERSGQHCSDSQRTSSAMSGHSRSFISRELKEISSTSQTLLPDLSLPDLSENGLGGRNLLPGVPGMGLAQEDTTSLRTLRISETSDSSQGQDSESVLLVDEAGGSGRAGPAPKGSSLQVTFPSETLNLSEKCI
Experimental: (§1) The antagonistic activities of the compounds of formula (I) on the EP2 and EP4 receptors are also determined in accordance with the following experimental method.
(§2) The assay is using the PathHunter™ HEK 293 PTGER2 and PTGER4 b-arrestin cell lines from DiscoverX. The system is based on the Enzyme Fragment Complementation Technology. Two complementing fragments of the b-galactosidase enzyme are expressed within stably transfected cells. The larger portion of b-gal, termed EA for Enzyme Acceptor, is fused to the C-terminus of b-arrestin 2. The smaller fragment, termed ProLink™ tag, is fused to PTGER2 (EP2) or PTRGER4 (EP4) at the C-terminus. Upon activation, b-arrestin is recruited which forces the interaction of ProLink and EA, allowing complementation of the two fragments of b-gal and the formation of a functional enzyme which is capable of hydrolysing the substrate and generating a chemiluminescent signal.
(§3) The HEK 293 PTGER4 b-arrestin cells (DiscoverX 93-030-4C1) are detached from culture dishes with a cell dissociation buffer (Invitrogen, 13151-014), and collected in growing medium (GM: DMEM+Glutamax-I (Invitrogen 32430)/10% FCS, 1% Penicilin/streptomycin). 5000 cells per well of a 384 well plate (white with white bottom Greiner 781080) are seeded in 20 ul per well of GM. Plate is incubated at 37° C., 5% CO2 for 24 hours.
(§4) Stock solutions of test compounds are made at a concentration of 10 mM in DMSO, and serially diluted in DMSO to concentrations required for inhibition dose response curves (tested concentration range 10 μM-2 nM or 1 μM-0.2 nM).
PGE2 (Cayman 14010, stock solution: 100 μM in DMSO) is used as agonist at 20 nM final concentration, corresponding to EC80.
Five microliters of diluted compounds are transferred into the assay plate. Plate is pre-incubated 15 minutes at 37° C. Then five microliters of PGE2 (final conc. 20 nM) are transferred into the assay plate. Plate is incubated 120 minutes at 37° C.
(§5) PathHunter Glo Detection Kit components are thawed and mix according to manufacturer's instructions: 1 part Galacton Star Substrate with 5 parts Emerald II™ Solution, and 19 parts of PathHunter Cell Assay Buffer, respectively. Twelve μl of reagent are transferred to the assay plate and incubate for 1 hour at room temperature in the dark. Luminescence counts are read on a BMG Fluostar Optima reader according to manufacturer's instructions.
(§6) For each compound concentration calculate of the percentage of activity compared to DMSO control value as average ±STDEV. (each concentration is measured in duplicate)
(§7) IC50 values and curves are generated with XLfit software (IDBS) using Dose-Response One Site model 203. When compounds were measured multiple times, mean values are given.

EP2 = target: T2, EP2 (Homo sapiens, UniProt P43116); assay: hEP2 cAMP Assay (SF295 glioblastoma cells, HTRF cAMP, PGE2 75 nM); conditions: antagonistic activity, PGE2 75 nM (EC80)
T2 construct: SF295 glioblastoma cells express high endogenous EP2 and no EP4; host or cells: SF295 glioblastoma cells
T2 sequence (P43116 whole entry): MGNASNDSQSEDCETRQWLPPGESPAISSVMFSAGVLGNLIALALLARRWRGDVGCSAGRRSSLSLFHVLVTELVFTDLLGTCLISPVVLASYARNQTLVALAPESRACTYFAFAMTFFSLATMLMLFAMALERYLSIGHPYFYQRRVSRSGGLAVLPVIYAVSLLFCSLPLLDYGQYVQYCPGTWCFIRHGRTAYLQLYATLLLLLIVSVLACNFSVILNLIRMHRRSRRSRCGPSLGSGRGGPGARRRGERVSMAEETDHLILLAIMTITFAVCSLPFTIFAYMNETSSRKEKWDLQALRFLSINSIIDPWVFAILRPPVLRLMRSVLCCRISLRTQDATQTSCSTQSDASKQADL
How it was run: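 IC50 values derive from duplicate-point curves of percent cAMP relative to DMSO, read by HTRF (665/620 nm) against a cAMP calibrator. Compounds (30 μM to 0.01 nM ranges) were given 45 min at room temperature before 30 min with 75 nM PGE2, in EP2-only SF295 cells with 2 mM IBMX.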

EP4 = target: T3, EP4 (Homo sapiens, UniProt P35408); assay: hEP4 cAMP Assay (BT549 breast cancer cells, HTRF cAMP, PGE2 6 nM); conditions: antagonistic activity, PGE2 6 nM (EC80)
T3 construct: BT549 breast cancer cells, express high endogenous EP4 levels and very low EP2 levels; host or cells: BT549 breast cancer cells
T3 sequence (P35408 whole entry): as the sequence (P35408 whole entry) above
How it was run: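 Antagonism is measured as inhibition of PGE2 (6 nM final, EC80) cAMP accumulation in EP4-expressing BT549 breast cancer cells, after a 45 min room-temperature compound pre-incubation and 30 min agonist step, with 2 mM IBMX present. HTRF ratio gives cAMP relative to DMSO; IC50 fitted, means over repeat runs.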

PTGER2 (EP2) = target: T4, PTGER2 (EP2) (Homo sapiens, UniProt P43116); assay: hEP2 b-Arrestin Assay (PathHunter HEK 293 PTGER2 b-arrestin cells, PGE2 5 μM); conditions: antagonistic activity, beta-arrestin assay, HEK 293 PTGER2 cells, PGE2 5 μM (EC80); read-out: hEP2 b-arr IC50
T4 construct: host or cells: HEK 293 (PathHunter, stably transfected)
T4 sequence (P43116 whole entry): as the sequence (P43116 whole entry) above
Experimental: as §1, §2
as §3, with “293 PTGER2” for “293 PTGER4”, “(DiscoverX 93-021-4C1)” for “(DiscoverX 93-030-4C1)”, “20 μl” for “20 ul”
as §4
PGE2 (Cayman 14010, stock solution: 10 mM in DMSO) is used as agonist at 5 μM final concentration, corresponding to EC80.
Five microliters of diluted compounds are transferred into the assay plate. Plate is pre-incubated 15 minutes at 37° C. Then five microliters of PGE2 (final conc. 5 μM) are transferred into the assay plate. Plate is incubated 120 minutes at 37° C.
as §5, §6, §7

Compound | IC50 (PTGER4 (EP4)) [nM] | IC50 (EP2) [nM] | IC50 (EP4) [nM] | IC50 (PTGER2 (EP2)) [nM]
COc1ccc2cc(F)cc(CCNc3cc(-c4cc(C(F)(F)F)c(C(=O)O)s4)ncn3)c2n1 [Example 152, 5-{6-[2-(6-Fluoro-2-methoxy-quinolin-8-yl)-ethylamino]-pyrimidin-4-yl}-3-trifluoromethyl-thiophene-2-carboxylic acid] | 107 | 506 | 197 | 
Cc1c(C)n(C)c2c(CCNc3cc(-c4ccc(C(=O)O)c(OC5CCC5)c4)ncn3)cccc12 [Example 28, 2-Cyclobutoxy-4-{6-[2-(1,2,3-trimethyl-1H-indol-7-yl)-ethylamino]-pyrimidin-4-yl}-benzoic acid] | 1400 | 684 | 988 | 
O=C(O)c1ccc(-c2cc(NCCc3cccc4ccccc34)ncn2)cc1OC1CCC1 [Example 8, 2-Cyclobutoxy-4-[6-(2-naphthalen-1-yl-ethylamino)-pyrimidin-4-yl]-benzoic acid] |  | 133 | 568 | 71
O=C(O)c1ccc(-c2cc(NCCc3cccc4sccc34)ncn2)cc1OC1CCC1 [Example 107, 4-[6-(2-Benzo[b]thiophen-4-yl-ethylamino)-pyrimidin-4-yl]-2-cyclobutoxy-benzoic acid] |  | 250 | 267 | 149
O=C(O)c1ccc(-c2cc(NCCc3c(F)ccc4ccccc34)ncn2)cc1OC1CCC1 [Example 94, 2-Cyclobutoxy-4-{6-[2-(2-fluoro-naphthalen-1-yl)-ethylamino]-pyrimidin-4-yl}-benzoic acid] |  | 53 | 368 | 34
Cc1ccc2cnccc2c1CCNc1cc(-c2ccc(C(=O)O)c(OC3CCC3)c2)ncn1 [Example 84, 2-Cyclobutoxy-4-{6-[2-(6-methyl-isoquinolin-5-yl)-ethylamino]-pyrimidin-4-yl}-benzoic acid] |  | 179 | 989 | 149
COc1ccc2c(C)ccnc2c1CCNc1cc(-c2ccc(C(=O)O)c(OC3CCC3)c2)ncn1 [Example 87, 2-Cyclobutoxy-4-{6-[2-(7-methoxy-4-methyl-quinolin-8-yl)-ethylamino]-pyrimidin-4-(C)yl}-benzoic acid] |  | 103 | 850 | 70
O=C(O)c1ccc(-c2cc(NCCc3ccc(F)c4ccccc34)ncn2)cc1OC1CCC1 [Example 20, 2-Cyclobutoxy-4-{6-[2-(4-fluoro-naphthalen-1-yl)-ethylamino]-pyrimidin-4-yl}-benzoic acid] |  | 199 | 680 | 73

Second part, the compound after the results:

IC50 (PTGER4 (EP4)) [nM] | IC50 (EP2) [nM] | IC50 (EP4) [nM] | IC50 (PTGER2 (EP2)) [nM] | Compound
686 | 564 | 163 |  | COc1ccc2ncccc2c1CCNc1cc(-c2ccc3c(=O)[nH]n(C)c3c2)ncn1 [Example 117, 6-{6-[2-(6-Methoxy-quinolin-5-yl)-ethylamino]-pyrimidin-4-yl}-1-methyl-1,2-dihydro-indazol-3-one]
34 | 465 | 102 |  | CCOc1cc(-c2cc(NCCc3ccc(C(F)F)c4ccccc34)ncn2)ccc1OCC(=O)O [Example 73, (4-{6-[2-(4-Difluoromethyl-naphthalen-1-yl)-ethylamino]-pyrimidin-4-yl}-2-ethoxy-phenoxy)-acetic acid]
91 | 374 | 128 |  | CCOc1cc(-c2cc(NCCc3ccc(C(F)F)c4ccccc34)ncn2)ccc1C(=O)O [Example 71, 4-{6-[2-(4-Difluoromethyl-naphthalen-1-yl)-ethylamino]-pyrimidin-4-yl}-2-ethoxy-benzoic acid]
 | 95 | 493 | 245 | Cc1ccc2c(cnn2C)c1CCNc1cc(-c2ccc3ccncc3c2)ncn1 [Example 115, [2-(1,5-Dimethyl-1H-indazol-4-yl)-ethyl]-(6-isoquinolin-7-yl-pyrimidin-4-yl)-amine]
 | 197 | 878 | 178 | COc1cc(-c2cc(NCCc3c(OC)ccc4ncccc34)ncn2)sc1C1(O)COC1 [Example 89, 3-(3-Methoxy-5-{6-[2-(6-methoxy-quinolin-5-yl)-ethylamino]-pyrimidin-4-yl}-thiophen-2-yl)-oxetan-3-ol]
 | 36 | 427 | 36 | CCOc1cc(-c2cc(NCCc3c(F)ccc4ccccc34)ncn2)ccc1C(=O)O [Example 93, 2-Ethoxy-4-{6-[2-(2-fluoro-naphthalen-1-yl)-ethylamino]-pyrimidin-4-yl}-benzoic acid]
 | 27 | 459 | 47 | COc1ccc2ncccc2c1CCNc1cc(-c2ccc(-c3nnc(N)s3)cc2)ncn1 [Example 113, {6-[4-(5-Amino-[1,3,4]thiadiazol-2-yl)-phenyl]-pyrimidin-4-yl}-[2-(6-methoxy-quiolin-5-yl)-ethyl]-amine]
 | 89 | 428 | 119 | COc1ccc2ncccc2c1CCNc1cc(-c2ccc(-c3cc(O)no3)cc2)ncn1 [Example 83, 5-(4-{6-[2-(6-Methoxy-quinolin-5-yl)-ethylamino]-pyrimidin-4-yl}-phenyl)-isoxazol-3-ol]
 | 27 | 546 | 13 | COc1ccc2ccccc2c1CCNc1cc(-c2cc3cc(C(=O)O)ccc3[nH]2)ncn1 [Example 130, 2-{6-[2-(2-Methoxy-naphthalen-1-yl)-ethylamino]-pyrimidin-4-yl}-1H-indole-5-carboxylic acid]
 | 210 | 685 | 190 | COc1ccc2ncccc2c1CCNc1cc(-c2ccnc(N3CCCCC3)c2)ncn1 [Example 112, [2-(6-Methoxy-quinolin-5-yl)-ethyl]-[6-(3,4,5,6-tetrahydro-2H-[1,2′]bipyridinyl-4′-yl)-pyrimidin-4-yl]amine]
 | 67 | 909 | 22 | CCOc1cc(-c2cc(NCCc3c(Br)ccc4ccccc34)ncn2)ccc1C(=O)O [Example 7, 4-{6-[2-(2-Bromo-naphthalen-1-yl)-ethylamino]-pyrimidin-4-yl}-2-ethoxy-benzoic acid]
 | 123 | 654 | 45 | CCOc1cc(-c2cc(NCCc3c(OC)ccc4ccccc34)ncn2)ccc1OCC(=O)O [Example 47, (2-Ethoxy-4-{6-[2-(2-methoxy-naphthalen-1-yl)-ethylamino]-pyrimidin-4-yl}-phenoxy)-acetic acid]
